In ChEMBL document CHEMBL1759848, “[11C]sorafenib: radiosynthesis and preliminary PET study of brain uptake in P-gp/Bcrp knockout mice” (Bioorg Med Chem Lett, 2011):

Key:
Format in all cases: ADME, tissue-based
Brain [1] = test: Drug uptake in wild-type mouse brain by Positron emission tomography; conditions: in vivo
Brain [2] = test: Drug uptake in P-gp/Bcrp knockout mouse brain by Positron emission tomography; conditions: in vivo
Brain [3] = test: Drug uptake in wild-type mouse brain after 60 mins; conditions: in vivo, 1 h
Brain [4] = test: Drug uptake in P-gp/Bcrp knockout mouse brain after 60 mins; conditions: in vivo, 1 h

- Drug uptake (Brain [1]): Active
- Drug uptake (Brain [2]): Active
- SUV (Brain [3]): 18.83
- SUV (Brain [4]): 6.72
Compound: CNC(=O)c1cc(Oc2ccc(N[11C](=O)Nc3ccc(Cl)c(C(F)(F)F)c3)cc2)ccn1 [[11C]-SORAFENIB]
